Measured values: US20250215030A1, “STAT MODULATORS AND USES THEREOF” (Recludix Pharma, Inc., priority 2022, published 2025)

Tests used:
[1] = biological target: T1, Recombinant STAT6 protein (STAT6(W123-T658)) (Homo sapiens, UniProt P42226); assay: STAT6 Fluorescence Polarization (FP) Assay; assay type: binding; settings: STAT6(W123-T658) 250 nM, probe 5-FAM-ApYKPFQDLI-NH2 2 nM, 45-minute incubation
T1 construct: STAT6(W123-T658)
T1 sequence (P42226 123-658): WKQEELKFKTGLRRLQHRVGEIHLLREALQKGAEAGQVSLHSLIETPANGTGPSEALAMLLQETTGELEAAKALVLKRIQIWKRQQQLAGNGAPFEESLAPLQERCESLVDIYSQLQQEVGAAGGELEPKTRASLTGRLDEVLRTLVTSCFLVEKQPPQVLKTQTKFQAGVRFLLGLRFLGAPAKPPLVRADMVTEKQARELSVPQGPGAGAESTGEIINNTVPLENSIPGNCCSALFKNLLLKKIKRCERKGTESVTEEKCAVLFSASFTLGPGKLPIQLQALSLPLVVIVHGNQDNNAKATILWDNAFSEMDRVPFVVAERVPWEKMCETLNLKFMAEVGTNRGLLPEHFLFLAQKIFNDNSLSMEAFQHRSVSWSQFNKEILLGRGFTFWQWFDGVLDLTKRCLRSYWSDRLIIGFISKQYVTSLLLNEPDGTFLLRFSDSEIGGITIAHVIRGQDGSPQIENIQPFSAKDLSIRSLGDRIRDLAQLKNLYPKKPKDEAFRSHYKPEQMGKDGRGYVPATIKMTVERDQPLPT
In short: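 STAT6 (W123-T658) at 250 nM mixed with 2 nM 5-FAM-ApYKPFQDLI-NH2 probe in HEPES pH 7.4 buffer with DTT and Tween 20, 1% DMSO final. Polarization read after 45 min at room temperature; IC50 by nonlinear regression of mP versus log concentration, reported in bins A–D.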

[2] = biological target: T2, Recombinant STAT3 protein (STAT3(G127-I722)) (Homo sapiens, UniProt P40763); assay: STAT3 Fluorescence Polarization (FP) Assay; assay type: binding; settings: STAT3(G127-I722) 25 nM, probe 5-FAM-GpYLPQTV-NH2 2 nM, 45-minute incubation
T2 construct: STAT3(G127-I722)
T2 sequence (P40763 127-722, species assumed): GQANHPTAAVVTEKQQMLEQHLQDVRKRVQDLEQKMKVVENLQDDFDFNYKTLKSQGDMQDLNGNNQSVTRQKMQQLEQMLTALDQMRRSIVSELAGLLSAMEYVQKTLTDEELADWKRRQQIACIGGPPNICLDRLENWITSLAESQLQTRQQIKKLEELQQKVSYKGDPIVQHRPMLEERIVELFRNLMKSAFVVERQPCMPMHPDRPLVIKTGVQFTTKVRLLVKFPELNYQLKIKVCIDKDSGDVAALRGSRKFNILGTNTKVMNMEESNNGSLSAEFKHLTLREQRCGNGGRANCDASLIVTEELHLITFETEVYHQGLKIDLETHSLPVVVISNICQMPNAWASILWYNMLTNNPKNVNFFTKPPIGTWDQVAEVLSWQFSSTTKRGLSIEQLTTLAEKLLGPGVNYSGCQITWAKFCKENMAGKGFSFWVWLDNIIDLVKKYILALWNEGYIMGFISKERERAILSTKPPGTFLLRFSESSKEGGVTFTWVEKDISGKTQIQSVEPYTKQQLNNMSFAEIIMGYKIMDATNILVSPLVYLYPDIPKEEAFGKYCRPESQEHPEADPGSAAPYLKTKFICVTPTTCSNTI
In short: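 STAT3(G127-I722) at 25 nM and 5-FAM-GpYLPQTV-NH2 probe at 2 nM in HEPES pH 7.4 buffer with NaCl, EDTA, Tween 20, DTT; 1% DMSO. FP read after 45 min at room temperature; IC50 by nonlinear regression of mP vs log concentration, binned A ≤100 nM to D >10 μM.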

Molecule	IC50 [1] [nM]	IC50 [2] [nM]
((R)-fluoro(2-(((3S,6S,7aS,8aR,9aR)-3-(3-(morpholine-4-carbonyl)azetidine-1-carbonyl)-5-oxodecahydro-1H-cyclopropa[d]pyrrolo[1,2-a]azocin-6-yl)carbamoyl)benzo[b]thiophen-5-yl)methyl)phosphonic acid or ((S)-fluoro(2-(((3S,6S,7aS,8aR,9aR)-3-(3-(morpholine-4-carbonyl)azetidine-1-carbonyl)-5-oxodecahydro-1H-cyclopropa[d]pyrrolo[1,2-a]azocin-6-yl)carbamoyl)benzo[b]thiophen-5-yl)methyl)phosphonic acid [Compound 33]	3000 to 30000	< 100
O=C(N[C@H]1C[C@@H]2C[C@@H]2C[C@H]2CC[C@@H](C(=O)N3CC4(CN(C(=O)Cc5ccccc5)C4)C3)N2C1=O)c1cc2cc(C(F)(F)P(=O)(O)O)ccc2s1 [Compound 41, (difluoro(2-(((3S,6S,7aS,8aR,9aR)-5-oxo-3-(6-(2-phenylacetyl)-2,6-diazaspiro[3.3]heptane-2-carbonyl)decahydro-1H-cyclopropa[d]pyrrolo[1,2-a]azocin-6-yl)carbamoyl)benzo[b]thiophen-5-yl)methyl)phosphonic acid]	300 to 3000	< 100
COc1ccncc1C1CN(C(=O)[C@@H]2CC[C@@H]3C[C@@H]4C[C@@H]4C[C@H](NC(=O)c4cc5cc(C(F)P(=O)(O)O)ccc5s4)C(=O)N32)C1 (stereo partly drawn) [Example 318, (fluoro(2-(((3S,6S,7aR,8aS,9aR)-3-(3-(4-methoxypyridin-3-yl)azetidine-1-carbonyl)-5-oxodecahydro-1H-cyclopropa[d]pyrrolo[1,2-a]azocin-6-yl)carbamoyl)benzo[b]thiophen-5-yl)methyl)phosphonic acid]	3000 to 30000	< 100
O=C(N[C@H]1C[C@H]2C[C@H]2C[C@H]2CC[C@@H](C(=O)N3CC(C(=O)N4CCOCC4)C3)N2C1=O)c1cc2cc(C(F)(F)P(=O)(O)O)ccc2s1 [Compound 71, (difluoro(2-(((3S,6S,7aR,8aS,9aR)-3-(3-(morpholine-4-carbonyl)azetidine-1-carbonyl)-5-oxodecahydro-1H-cyclopropa[d]pyrrolo[1,2-a]azocin-6-yl)carbamoyl)benzo[b]thiophen-5-yl)methyl)phosphonic acid]	3000 to 30000	< 100
N#C[C@@H]1CN(C(=O)[C@@H]2CC[C@@H]3C[C@H]4C[C@H]4C[C@H](NC(=O)c4cc5cc(C(F)(F)P(=O)(O)O)ccc5s4)C(=O)N32)C[C@]12C(=O)Nc1ccccc12 (single isomer, unassigned) [Compound 28]	≤ 300	< 100
O=C(N[C@H]1C[C@@H]2C[C@@H]2C[C@H]2CC[C@@H](C(=O)N3CCN(C(=O)C4COC4)CC3)N2C1=O)c1cc2cc(C(F)(F)P(=O)(O)O)ccc2s1 [Compound 42, (difluoro(2-(((3S,6S,7aS,8aR,9aR)-3-(4-(oxetane-3-carbonyl)piperazine-1-carbonyl)-5-oxodecahydro-1H-cyclopropa[d]pyrrolo[12-a]azocin-6-yl)carbamoyl)benzo[b]thiophen-5-yl)methyl)phosphonic acid]	300 to 3000	100 to 1000
(difluoro(2-(((3S,6S,7aR,8aS,9aR)-5-ox0-3-(3-(pyridin-2-yl)azetidine-1-carbonyl)decahydro-1H-cyclopropa[d]pyrrolo[1,2-a]azocin-6-yl)carbamoyl)benzo[b]thiophen-5-yl)methyl)phosphonic acid [Compound 106]	300 to 3000	< 100
Cc1cnc(C2CN(C(=O)[C@@H]3CC[C@@H]4C[C@H]5C[C@H]5C[C@H](NC(=O)c5cc6cc(C(F)P(=O)(O)O)ccc6s5)C(=O)N43)C2)o1 (stereo partly drawn) [Example 324, (fluoro(2-(((3S,6S,7aS,8aR,9aR)-3-(3-(5-methyloxazol-2-yl)azetidine-1-carbonyl)-5-oxodecahydro-1H-cyclopropa[d]pyrrolo[1,2-a]azocin-6-yl)carbamoyl)benzo[b]thiophen-5-yl)methyl)phosphonic acid]	3000 to 30000	100 to 1000
O=C(N[C@H]1C[C@H]2C[C@H]2C[C@H]2CC[C@@H](C(=O)N[C@H]3CN(c4cccnc4)C[C@H]3F)N2C1=O)c1cc2cc(C(F)(F)P(=O)(O)O)ccc2s1 [Compound 129, (difluoro(2-(((3S,6S,7aR,8aS,9aR)-3-(((3S,4R)-4-fluoro-1-(pyridin-3-yl)pyrrolidin-3-yl)carbamoyl)-5-oxodecahydro-1H-cyclopropa[d]pyrrolo[1,2-a]azocin-6-yl)carbamoyl)benzo[b]thiophen-5-yl)methyl)phosphonic acid]	3000 to 30000	< 100

Continued, values first:

IC50 [1] [nM]	IC50 [2] [nM]	Molecule
≤ 300	< 100	CN(C)c1ccncc1[C@H]1CN(C(=O)[C@@H]2CC[C@@H]3C[C@H]4C[C@H]4C[C@H](NC(=O)c4cc5cc([C@H](F)P(=O)(O)O)ccc5s4)C(=O)N32)C2(CC2)C1 (single isomer, unassigned) [Example 435]
3000 to 30000	< 100	Cc1ncccc1C1CN(C(=O)[C@@H]2CC[C@@H]3C[C@@H]4C[C@@H]4C[C@H](NC(=O)c4cc5cc(C(F)(F)P(=O)(O)O)ccc5s4)C(=O)N32)C1 [Compound 55, (difluoro(2-(((3S,6S,7aR,8aS,9aR)-3-(3-(2-methylpyridin-3-yl)azetidine-1-carbonyl)-5-oxodecahydro-1H-cyclopropa[d]pyrrolo[1,2-a]azocin-6-yl)carbamoyl)benzo[b]thiophen-5-yl)methyl)phosphonic acid]
300 to 3000	< 100	O=C(N[C@H]1C[C@H]2C[C@H]2C[C@H]2CC[C@@H](C(=O)N[C@H]3CN(c4cccnc4)C[C@@H]3F)N2C1=O)c1cc2cc(C(F)P(=O)(O)O)ccc2s1 (stereo partly drawn) [Example 267, (fluoro(2-(((3S,6S,7aR,8aS,9aR)-3-(((3S,4S)-4-fluoro-1-(pyridin-3-yl)pyrrolidin-3-yl)carbamoyl)-5-oxodecahydro-1H-cyclopropa[d]pyrrolo[1,2-a]azocin-6-yl)carbamoyl)benzo[b]thiophen-5-yl)methyl)phosphonic acid]
> 30000	< 100	COc1ccncc1C1CN(C(=O)[C@@H]2CC[C@@H]3C[C@@H]4C[C@@H]4C[C@H](NC(=O)c4cc5cc([C@@H](F)P(=O)(O)O)ccc5s4)C(=O)N32)C1 (single isomer, unassigned) [Example 354]
300 to 3000	< 100	CN(C)c1ccncc1[C@@H]1CN(C(=O)[C@@H]2CC[C@@H]3C[C@H]4C[C@H]4C[C@H](NC(=O)c4cc5cc([C@H](F)P(=O)(O)O)ccc5s4)C(=O)N32)C2(CC2)C1 (single isomer, unassigned) [Example 433]
3000 to 30000	< 100	O=C(N[C@H]1C[C@@H]2C[C@@H]2C[C@H]2CC[C@@H](C(=O)N[C@@H]3CCN(c4ccccn4)C3)N2C1=O)c1cc2cc(C(F)(F)P(=O)(O)O)ccc2s1 [Compound 39, (difluoro(2-(((3S,6S,7aS,8aR,9aR)-5-oxo-3-(((R)-1-(pyridin-2-yl)pyrrolidin-3-yl)carbamoyl)decahydro-1H-cyclopropa[d]pyrrolo[1,2-a]azocin-6-yl)carbamoyl)benzo[b]thiophen-5-yl)methyl)phosphonic acid]
3000 to 30000	1000 to 10000	Cn1cc(CC2CN(C(=O)[C@@H]3CC[C@@H]4C[C@H]5C[C@H]5C[C@H](NC(=O)c5cc6cc(CP(=O)(O)O)ccc6s5)C(=O)N43)C2)cn1 [Example 379, ((2-(((3S,6S,7aS,8aR,9aR)-3-(3-((1-methyl-1H-pyrazol-4-yl)methyl)azetidine-1-carbonyl)-5-oxodecahydro-1H-cyclopropa[d]pyrrolo[1,2-a]azocin-6-yl)carbamoyl)benzo[b]thiophen-5-yl)methyl)phosphonic acid]
3000 to 30000	1000 to 10000	O=C(N[C@H]1C[C@@H]2C[C@@H]2C[C@H]2CC[C@@H](C(=O)N3CCC34CCCCC4)N2C1=O)c1cc2cc(C(F)P(=O)(O)O)ccc2s1 (stereo partly drawn) [Example 388, (fluoro(2-(((3S,6S,7aS,8aR,9aR)-5-oxo-3-(1-azaspiro[3.5]nonane-1-carbonyl)decahydro-1H-cyclopropa[d]pyrrolo[1,2-a]azocin-6-yl)carbamoyl)benzo[b]thiophen-5-yl)methyl)phosphonic acid]
3000 to 30000	1000 to 10000	O=C(N[C@H]1C[C@@H]2C[C@@H]2C[C@H]2CC[C@@H](C(=O)N3CC(Cc4cc(F)ccc4F)C3)N2C1=O)c1cc2cc(CP(=O)(O)O)ccc2s1 [Example 378, ((2-(((3S,6S,7aS,8aR,9aR)-3-(3-(2,5-difluorobenzyl)azetidine-1-carbonyl)-5-oxodecahydro-1H-cyclopropa[d]pyrrolo[1,2-a]azocin-6-yl)carbamoyl)benzo[b]thiophen-5-yl)methyl)phosphonic acid]
